Columns and labels:
[1] = target: T1, rat EP4 receptor (Rattus norvegicus, UniProt P43114); experiment: STEP plate cAMP level assay for EP4 agonist; type: cell-based; settings: cAMP readout, read-out: STEP cell functional assay EC50s cAMP/EP4
T1 construct: host or cells: cells seeded on the STEP plate
Excerpt: Functional Cellular Assays (STEP Plate Format)
Procedure of cAMP Assay for EP2/EP4 Agonist
3. […] In addition each concentration had triplicates.
6. Aspirate the supernatant.

[2] = system: calvarial bone defect; experiment: Rat calvarial defect model (bone formation); type: in vivo; settings: female Sprague Dawley rats, in calcium phosphate cement/demineralized bone matrix, 3 μg/ml to 3 mg/ml, eight weeks; data in FIG. 1

T1 sequence (P43114 whole entry): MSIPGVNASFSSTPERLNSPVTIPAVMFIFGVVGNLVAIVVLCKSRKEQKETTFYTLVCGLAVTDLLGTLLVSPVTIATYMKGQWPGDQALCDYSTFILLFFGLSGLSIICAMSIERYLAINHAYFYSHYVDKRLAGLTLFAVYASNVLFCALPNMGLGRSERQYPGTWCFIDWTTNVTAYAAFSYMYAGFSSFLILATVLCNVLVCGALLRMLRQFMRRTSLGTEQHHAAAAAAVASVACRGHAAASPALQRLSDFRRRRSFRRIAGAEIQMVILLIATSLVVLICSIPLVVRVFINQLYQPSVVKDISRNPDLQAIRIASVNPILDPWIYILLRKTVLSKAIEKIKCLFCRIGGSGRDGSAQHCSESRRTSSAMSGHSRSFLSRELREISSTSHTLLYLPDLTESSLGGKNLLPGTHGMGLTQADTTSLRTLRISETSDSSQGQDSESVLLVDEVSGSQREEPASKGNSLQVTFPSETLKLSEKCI

Row | EC50 [1] | Compound | Healing of a calvarial bone defect (degree of repair) [2]
1 | 50.8 nM | COC(=O)c1ccc(CCCN2C(=O)C(F)(F)C[C@@H]2/C=C/[C@@H](O)[C@H](C)CCCc2ccccc2)s1 [Example 28E, methyl 5-(3-((R)-3,3-difluoro-5-((3S,4R,E)-3-hydroxy-4-methyl-7-phenylhept-1-en-1-yl)-2-oxopyrrolidin-1-yl)propyl)thiophene-2-carboxylate] | –
2 | – | CCC#CC[C@H](C)[C@H](O)/C=C/[C@H]1CC(F)(F)C(=O)N1CCCCCCC(=O)O [Example 2C, 7-((R)-3,3-difluoro-5-((3S,4S,E)-3-hydroxy-4-methylnon-1-en-6-yn-1-yl)-2-oxopyrrolidin-1-yl)heptanoic acid] | Accelerated Healing

Reference: patent US9701630B2, “Difluorolactam compositions for EP4-mediated osteo related diseases and conditions” (Cayman Chemical Company, Inc., priority 2012, dated 2017)
